Key:
Experiment in all cases: relative viability (nuclei count vs DMSO), 5 days (fraction); higher = more cells survive
XMD13-2 = compound: C1CC1C(=O)NC2=NNC3=C2C=CC(=C3)C4=CC(=CC=C4)C(=O)NC5CC5 [XMD13-2]
Summary of the method: (§1)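 Hoechst staining, done together with fixation and permeabilisation, marked nuclei for 4× imaging and MetaXpress counting. This followed 5 days without medium change after lung cancer cell lines, kept overnight at 37 °C in 1536-well plates, were pinned with five library-drug doses (not always all listed) spaced by √10 on vehicle-anchored plates. Viability is the ratio of treated-well to vehicle-well nuclei, expressed as a median across plates. Plates passed only at control CV below 25% with at least one doubling.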

ALW-II-49-7 = compound: Cc1ccc(C(=O)Nc2cccc(C(F)(F)F)c2)cc1Nc1cncc(C(N)=O)c1 [ALW-II-49-7]
Summary of the method: as §1

Dasatinib = compound: Cc1nc(Nc2ncc(C(=O)Nc3c(C)cccc3Cl)s2)cc(N2CCN(CCO)CC2)n1 [Dasatinib]
Summary of the method: as §1

Cell Line: UMC-11
- relative viability (XMD13-2; 0.05 µM): 1.12
- relative viability (XMD13-2; 0.1581 µM): 0.945
- relative viability (XMD13-2; 0.5 µM): 0.993
- relative viability (XMD13-2; 1.581 µM): 0.887
- relative viability (XMD13-2; 5 µM): 1.01
- relative viability (ALW-II-49-7; 0.08 µM): 1.01
- relative viability (ALW-II-49-7; 0.253 µM): 1.02
- relative viability (ALW-II-49-7; 0.8 µM): 0.975
- relative viability (ALW-II-49-7; 2.53 µM): 1.02
- relative viability (ALW-II-49-7; 8 µM): 1.01
- relative viability (Dasatinib; 0.005 µM): 0.916
- relative viability (Dasatinib; 0.01581 µM): 0.801
- relative viability (Dasatinib; 0.05 µM): 0.63
- relative viability (Dasatinib; 0.075 µM, anchor plate): 0.479
- relative viability (Dasatinib; 0.1581 µM): 0.415
- relative viability (Dasatinib; 0.5 µM): 0.37
